The values below come from ChEMBL document CHEMBL5465560, “Selectivity Literature for EUbOPEN Chemogenomic Library” (2024).

For assay [1], the target named is Mitogen-activated protein kinase 11 (Homo sapiens) (UniProt Q15759). In words: Selectivity interaction (Upstate Kinase Profiler service (Millipore)) EUB0000056c MAPK11. As to conditions: at 1 µM.
Assay [2] concerns the target Casein kinase II subunit alpha (Homo sapiens, UniProt P68400). In words: Selectivity interaction (ProQinase) EUB0000171b CSNK2A1.
The target in assay [3] is T1, Cytoplasmic tyrosine-protein kinase BMX (Homo sapiens) (UniProt P51813).
T1 sequence (whole entry): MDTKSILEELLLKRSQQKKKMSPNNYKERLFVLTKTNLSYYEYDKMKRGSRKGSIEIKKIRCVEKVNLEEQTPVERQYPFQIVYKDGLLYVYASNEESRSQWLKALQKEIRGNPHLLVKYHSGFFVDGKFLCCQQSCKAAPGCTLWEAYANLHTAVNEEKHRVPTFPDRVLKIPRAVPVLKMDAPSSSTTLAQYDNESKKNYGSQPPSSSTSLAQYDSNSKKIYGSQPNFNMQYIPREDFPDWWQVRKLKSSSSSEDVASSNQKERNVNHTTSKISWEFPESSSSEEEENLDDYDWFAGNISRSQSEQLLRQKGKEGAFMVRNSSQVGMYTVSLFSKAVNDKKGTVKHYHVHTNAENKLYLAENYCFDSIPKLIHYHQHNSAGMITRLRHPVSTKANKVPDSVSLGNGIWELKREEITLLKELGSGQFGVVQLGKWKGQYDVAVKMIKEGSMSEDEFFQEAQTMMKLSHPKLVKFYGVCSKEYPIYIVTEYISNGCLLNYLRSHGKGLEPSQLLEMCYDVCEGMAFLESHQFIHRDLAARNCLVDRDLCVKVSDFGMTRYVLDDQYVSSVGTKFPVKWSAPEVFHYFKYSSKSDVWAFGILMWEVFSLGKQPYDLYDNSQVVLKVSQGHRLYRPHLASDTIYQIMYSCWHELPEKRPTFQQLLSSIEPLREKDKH
In words: Selectivity interaction (Ambit KINOMEscan and KiNATiv profiling in Jurkat cells) EUB0000090b BMX. As to conditions: at 1 µM. It counts as cell-based.

Assay [4] concerns the target Mitogen-activated protein kinase 1 (Homo sapiens, UniProt P28482). In words: Selectivity interaction (Ambit KINOMEscan and KiNATiv profiling in Jurkat cells) EUB0000090b MAPK1. The assay is classed as cell-based. As to conditions: at 1 µM.
Assay [5] has as its target T2, Atypical kinase COQ8B, mitochondrial (Homo sapiens) (UniProt Q96D53).
T2 sequence (whole entry): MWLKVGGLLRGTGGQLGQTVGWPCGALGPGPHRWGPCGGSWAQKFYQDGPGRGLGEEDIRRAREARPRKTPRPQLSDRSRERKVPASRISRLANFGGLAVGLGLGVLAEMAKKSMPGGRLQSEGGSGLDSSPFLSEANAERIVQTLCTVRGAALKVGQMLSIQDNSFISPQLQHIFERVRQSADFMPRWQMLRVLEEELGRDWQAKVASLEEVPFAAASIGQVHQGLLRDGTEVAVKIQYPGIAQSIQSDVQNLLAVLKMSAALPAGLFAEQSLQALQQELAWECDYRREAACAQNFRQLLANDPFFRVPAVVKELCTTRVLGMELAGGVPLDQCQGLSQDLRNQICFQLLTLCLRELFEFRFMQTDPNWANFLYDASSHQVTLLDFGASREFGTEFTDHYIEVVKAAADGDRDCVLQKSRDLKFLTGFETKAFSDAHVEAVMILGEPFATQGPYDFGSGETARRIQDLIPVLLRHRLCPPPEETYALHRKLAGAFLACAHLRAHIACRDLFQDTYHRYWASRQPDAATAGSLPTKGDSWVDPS
In words: Selectivity interaction (KinomeScan (DiscoverX)) EUB0001079a ADCK4. The note with it: at 1 µM.

Assay [6] deals with T3, Serine/threonine-protein kinase LATS1 (Homo sapiens) (UniProt O95835).
T3 sequence (whole entry): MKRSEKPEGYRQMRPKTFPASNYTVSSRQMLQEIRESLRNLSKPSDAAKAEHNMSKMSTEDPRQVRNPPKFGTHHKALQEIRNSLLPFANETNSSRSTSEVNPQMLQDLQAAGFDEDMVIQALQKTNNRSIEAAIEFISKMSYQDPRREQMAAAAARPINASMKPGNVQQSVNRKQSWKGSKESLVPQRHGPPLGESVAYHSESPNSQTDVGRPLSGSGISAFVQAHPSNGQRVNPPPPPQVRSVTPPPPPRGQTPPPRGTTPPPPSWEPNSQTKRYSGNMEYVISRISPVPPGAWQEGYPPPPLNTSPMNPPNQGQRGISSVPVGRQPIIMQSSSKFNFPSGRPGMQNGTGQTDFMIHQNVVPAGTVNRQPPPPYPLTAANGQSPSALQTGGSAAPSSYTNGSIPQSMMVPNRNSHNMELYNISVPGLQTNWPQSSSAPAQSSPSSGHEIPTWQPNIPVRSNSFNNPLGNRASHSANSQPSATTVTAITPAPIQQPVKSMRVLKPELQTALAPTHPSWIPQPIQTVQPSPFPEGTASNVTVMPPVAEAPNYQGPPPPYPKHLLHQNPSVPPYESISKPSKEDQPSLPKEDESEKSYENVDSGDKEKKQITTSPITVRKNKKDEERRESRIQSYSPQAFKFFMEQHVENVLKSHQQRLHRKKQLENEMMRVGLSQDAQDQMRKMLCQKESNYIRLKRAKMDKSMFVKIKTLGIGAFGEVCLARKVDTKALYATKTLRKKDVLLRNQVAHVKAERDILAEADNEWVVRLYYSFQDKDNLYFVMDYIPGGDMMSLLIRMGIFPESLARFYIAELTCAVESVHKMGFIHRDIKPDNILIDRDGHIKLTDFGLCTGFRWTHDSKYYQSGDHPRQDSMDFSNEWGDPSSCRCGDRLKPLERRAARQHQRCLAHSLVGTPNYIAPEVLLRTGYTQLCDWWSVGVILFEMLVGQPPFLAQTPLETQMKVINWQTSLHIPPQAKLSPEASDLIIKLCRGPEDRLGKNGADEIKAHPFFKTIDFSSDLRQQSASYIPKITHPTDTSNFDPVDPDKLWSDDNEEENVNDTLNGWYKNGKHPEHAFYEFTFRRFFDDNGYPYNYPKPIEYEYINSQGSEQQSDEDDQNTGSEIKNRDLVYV
In words: Selectivity interaction (KinomeScan (DiscoverX)) EUB0001079a LATS1. As to conditions: at 1 µM.

In assay [7] the target is Mitogen-activated protein kinase 3 (Homo sapiens, UniProt P27361). In words: Selectivity interaction (KinomeScan (DiscoverX)) EUB0001079a MAPK3. As to conditions: at 1 µM.
Mitogen-activated protein kinase 3, sequence (P27361 whole entry): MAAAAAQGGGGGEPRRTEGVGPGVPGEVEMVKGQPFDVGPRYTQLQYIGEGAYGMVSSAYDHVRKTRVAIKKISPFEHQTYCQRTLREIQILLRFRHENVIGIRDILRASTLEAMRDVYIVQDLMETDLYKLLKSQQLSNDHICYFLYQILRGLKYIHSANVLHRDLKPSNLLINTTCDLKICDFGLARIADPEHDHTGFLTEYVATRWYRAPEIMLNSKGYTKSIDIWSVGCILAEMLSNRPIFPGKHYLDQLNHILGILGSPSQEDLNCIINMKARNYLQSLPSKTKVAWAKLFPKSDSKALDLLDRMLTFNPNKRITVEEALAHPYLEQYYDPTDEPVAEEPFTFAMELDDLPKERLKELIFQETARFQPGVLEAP
Assay [8] deals with Serine/threonine-protein kinase SIK3 (Homo sapiens) (UniProt Q9Y2K2). In words: Selectivity interaction (KinomeScan (DiscoverX)) EUB0000655a SIK3. The note with it: at 10 µM.
Serine/threonine-protein kinase SIK3 (Homo sapiens), sequence (Q9Y2K2 whole entry, looked up): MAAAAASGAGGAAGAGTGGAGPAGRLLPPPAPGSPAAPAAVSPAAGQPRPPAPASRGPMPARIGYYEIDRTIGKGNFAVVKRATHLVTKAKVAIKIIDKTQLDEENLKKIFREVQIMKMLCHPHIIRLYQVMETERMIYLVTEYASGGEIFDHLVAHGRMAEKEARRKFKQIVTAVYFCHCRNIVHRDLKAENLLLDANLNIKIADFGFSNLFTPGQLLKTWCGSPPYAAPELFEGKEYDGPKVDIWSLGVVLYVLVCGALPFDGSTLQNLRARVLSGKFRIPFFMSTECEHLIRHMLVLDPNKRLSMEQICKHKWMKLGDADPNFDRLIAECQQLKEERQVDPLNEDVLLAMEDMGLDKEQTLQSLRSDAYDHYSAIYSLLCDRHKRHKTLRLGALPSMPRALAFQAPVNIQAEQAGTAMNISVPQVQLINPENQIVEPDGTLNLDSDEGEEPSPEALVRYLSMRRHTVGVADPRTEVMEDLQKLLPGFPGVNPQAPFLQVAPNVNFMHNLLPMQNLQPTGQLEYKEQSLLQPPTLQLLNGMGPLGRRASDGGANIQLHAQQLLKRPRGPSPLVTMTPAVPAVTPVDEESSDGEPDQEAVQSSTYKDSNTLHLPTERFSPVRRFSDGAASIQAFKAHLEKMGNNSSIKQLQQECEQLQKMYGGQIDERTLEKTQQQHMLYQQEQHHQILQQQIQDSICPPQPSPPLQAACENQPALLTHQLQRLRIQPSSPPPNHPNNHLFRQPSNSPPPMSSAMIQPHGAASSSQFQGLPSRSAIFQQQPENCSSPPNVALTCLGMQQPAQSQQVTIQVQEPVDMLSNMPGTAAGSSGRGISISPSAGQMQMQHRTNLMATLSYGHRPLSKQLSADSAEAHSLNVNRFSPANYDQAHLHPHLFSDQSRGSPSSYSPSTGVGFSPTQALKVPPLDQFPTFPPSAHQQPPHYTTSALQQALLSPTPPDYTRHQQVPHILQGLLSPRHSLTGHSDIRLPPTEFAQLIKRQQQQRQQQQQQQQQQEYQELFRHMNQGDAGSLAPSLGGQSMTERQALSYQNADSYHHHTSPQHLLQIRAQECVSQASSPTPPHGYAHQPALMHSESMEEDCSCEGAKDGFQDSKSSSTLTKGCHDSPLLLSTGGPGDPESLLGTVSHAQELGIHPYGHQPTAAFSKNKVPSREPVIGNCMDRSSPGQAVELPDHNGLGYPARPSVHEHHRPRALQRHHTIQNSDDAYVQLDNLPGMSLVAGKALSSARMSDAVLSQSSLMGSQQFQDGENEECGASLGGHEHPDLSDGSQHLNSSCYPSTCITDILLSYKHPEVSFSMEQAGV
Assay [9] has as its target Serine/threonine-protein kinase SBK1 (Homo sapiens) (UniProt Q52WX2). In words: Selectivity interaction (Kinase panel (Z-LYTE Assay)) EUB0001632a SBK1. The note with it: at 10 µM.
Assay [10] concerns the target Serine/threonine-protein kinase PRP4 homolog (Homo sapiens) (UniProt Q13523). In words: Selectivity interaction (ActivX KiNativ screen (kinase selectivity in THP-1 cell lysates)) EUB0000639a PRPF4. The assay is classed as subcellular. The note with it: lysate, at 0.04 µM.

Casein kinase II subunit alpha, sequence (P68400 whole entry, looked up): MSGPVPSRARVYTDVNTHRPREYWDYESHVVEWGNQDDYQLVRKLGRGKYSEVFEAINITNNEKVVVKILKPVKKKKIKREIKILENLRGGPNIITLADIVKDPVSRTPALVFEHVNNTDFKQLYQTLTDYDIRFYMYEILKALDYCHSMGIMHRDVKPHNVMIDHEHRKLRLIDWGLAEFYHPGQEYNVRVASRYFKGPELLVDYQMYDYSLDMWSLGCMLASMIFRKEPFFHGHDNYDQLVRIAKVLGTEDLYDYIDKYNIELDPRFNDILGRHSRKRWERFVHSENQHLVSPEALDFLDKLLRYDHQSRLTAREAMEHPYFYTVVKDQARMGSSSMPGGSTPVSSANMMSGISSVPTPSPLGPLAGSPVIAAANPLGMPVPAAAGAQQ
Mitogen-activated protein kinase 11 (Homo sapiens), sequence (Q15759 whole entry): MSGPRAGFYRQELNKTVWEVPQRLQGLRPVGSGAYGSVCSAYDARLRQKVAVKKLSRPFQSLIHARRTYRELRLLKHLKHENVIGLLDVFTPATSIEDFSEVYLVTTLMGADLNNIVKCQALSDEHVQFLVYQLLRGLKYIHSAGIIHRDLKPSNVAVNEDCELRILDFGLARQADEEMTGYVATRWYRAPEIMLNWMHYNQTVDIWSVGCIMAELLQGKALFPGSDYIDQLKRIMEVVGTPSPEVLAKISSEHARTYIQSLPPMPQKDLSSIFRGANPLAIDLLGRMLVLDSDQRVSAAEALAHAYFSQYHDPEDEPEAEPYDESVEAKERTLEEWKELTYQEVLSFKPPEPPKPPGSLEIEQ
Serine/threonine-protein kinase SBK1 (Homo sapiens), sequence (Q52WX2 whole entry): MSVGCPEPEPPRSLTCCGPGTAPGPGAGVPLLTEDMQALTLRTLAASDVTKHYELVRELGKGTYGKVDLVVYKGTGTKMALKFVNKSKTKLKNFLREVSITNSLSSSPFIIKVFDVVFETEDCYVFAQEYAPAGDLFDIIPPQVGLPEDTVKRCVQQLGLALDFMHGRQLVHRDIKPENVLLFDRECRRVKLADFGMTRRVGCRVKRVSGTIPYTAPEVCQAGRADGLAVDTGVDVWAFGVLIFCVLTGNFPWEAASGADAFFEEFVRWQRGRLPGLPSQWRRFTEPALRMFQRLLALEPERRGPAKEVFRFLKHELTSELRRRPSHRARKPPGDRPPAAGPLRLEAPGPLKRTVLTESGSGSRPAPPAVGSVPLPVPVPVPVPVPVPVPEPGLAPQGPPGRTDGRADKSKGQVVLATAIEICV
Mitogen-activated protein kinase 1, sequence (P28482 whole entry): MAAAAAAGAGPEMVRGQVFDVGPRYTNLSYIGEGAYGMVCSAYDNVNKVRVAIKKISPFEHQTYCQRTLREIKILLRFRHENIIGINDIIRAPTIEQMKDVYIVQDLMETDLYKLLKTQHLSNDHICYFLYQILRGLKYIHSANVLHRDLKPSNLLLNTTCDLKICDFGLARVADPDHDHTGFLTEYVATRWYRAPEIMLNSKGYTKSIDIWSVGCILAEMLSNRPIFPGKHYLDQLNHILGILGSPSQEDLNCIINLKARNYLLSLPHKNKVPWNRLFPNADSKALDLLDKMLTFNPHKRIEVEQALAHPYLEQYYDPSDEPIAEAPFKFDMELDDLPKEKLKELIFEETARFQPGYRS
Serine/threonine-protein kinase PRP4 homolog (Homo sapiens), sequence (Q13523 whole entry): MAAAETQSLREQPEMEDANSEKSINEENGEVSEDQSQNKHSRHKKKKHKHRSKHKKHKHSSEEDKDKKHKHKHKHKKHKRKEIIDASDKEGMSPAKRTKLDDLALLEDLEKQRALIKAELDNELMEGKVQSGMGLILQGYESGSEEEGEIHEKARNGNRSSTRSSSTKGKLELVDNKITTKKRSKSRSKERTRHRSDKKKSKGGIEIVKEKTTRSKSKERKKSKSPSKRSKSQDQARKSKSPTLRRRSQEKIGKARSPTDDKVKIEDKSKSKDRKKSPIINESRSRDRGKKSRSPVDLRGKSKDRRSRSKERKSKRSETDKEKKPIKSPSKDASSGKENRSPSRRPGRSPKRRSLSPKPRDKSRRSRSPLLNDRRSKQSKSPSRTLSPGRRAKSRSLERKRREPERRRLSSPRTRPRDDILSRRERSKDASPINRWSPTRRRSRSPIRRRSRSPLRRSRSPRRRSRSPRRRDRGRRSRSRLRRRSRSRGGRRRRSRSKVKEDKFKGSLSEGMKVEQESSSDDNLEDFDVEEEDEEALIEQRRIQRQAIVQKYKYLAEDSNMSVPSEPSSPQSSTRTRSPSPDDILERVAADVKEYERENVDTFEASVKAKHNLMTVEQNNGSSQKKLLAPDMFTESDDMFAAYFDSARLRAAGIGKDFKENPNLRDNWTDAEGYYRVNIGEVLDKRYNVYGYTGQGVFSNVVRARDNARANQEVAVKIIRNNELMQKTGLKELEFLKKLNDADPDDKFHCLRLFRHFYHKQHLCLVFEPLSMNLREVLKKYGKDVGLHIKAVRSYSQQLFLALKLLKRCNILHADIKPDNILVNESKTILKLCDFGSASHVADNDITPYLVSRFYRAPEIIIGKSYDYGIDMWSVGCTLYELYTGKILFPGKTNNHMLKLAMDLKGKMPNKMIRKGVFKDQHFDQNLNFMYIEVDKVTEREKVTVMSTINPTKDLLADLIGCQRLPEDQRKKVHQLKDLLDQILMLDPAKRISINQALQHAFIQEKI

Compound `Cc1ccc(-c2ccc3c(ccc4sc5c(c43)NC[C@@H](C)NC5=O)n2)cn1` came in with a % of inhibition in assay [1] of 5%.
In the case of `C=CC(=O)Nc1cccc(C(=O)Nc2ccc(Nc3cc(-c4[nH]c(SC)nc4C)ccn3)cc2)c1`, the % of control amounted to 92% in assay [2] (at 1 µM) and 75% in [2] (at 5 µM).
Regarding `CN(C)C/C=C/C(=O)Nc1ccc(C(=O)N2CCCC(Nc3ncc(Cl)c(-c4c[nH]c5ccccc45)n3)C2)cc1` (stereo unspecified), the % of control came to 95% in assay [3] and 85% in assay [4].
For the compound `Nc1cnc(N2CCc3cc(S(=O)(=O)Nc4c(F)cc(Cl)cc4F)cc(N4CCCC4=O)c32)nc1` [TP-020n], the % of control came out at 100% in assay [5], 100% in [6] and 91% in assay [7].
As to `CN(C)CCOc1ccc(-c2nc(-c3ccncc3)c(-c3ccc4c(c3)CC/C4=N\O)[nH]2)cc1`, the % of control in [8] is 100%.
Take `Cn1cc(-n2cnc3c(NCc4nc5cc(Cl)c(Cl)cc5[nH]4)nc(N4CCOCC4)nc32)cn1`: in assay [9], the % of control was -0.405%.
With `CC[C@@H]1[C@H](F)C(=O)N[C@@H]1COc1nccc2cc(C(N)=O)c(OC)cc12` [ZIMLOVISERTIB], the % of inhibition in assay [10] turned out to be 4.1%.
